According to patent US9062071B2, “Substituted piperidines as HDM2 inhibitors” (Merck Sharp & Dohme Corp, priority 2011, dated 2015):

Molecular target: HDM2 protein (Homo sapiens, UniProt Q00987)
Assay: fluorescence polarization screening assay (FP IC50)
Format: binding
Details: class symbols
Experimental: The compounds were evaluated to determine activity at the HDM2 protein by known methods such as the fluorescence polarization screening assay that measures the inhibitory concentration that achieves 50% of maximal activity (FP IC50) and the dissociation constant for inhibitor binding (FP Ki). [Zhang et al., J. Analytical Biochemistry 331: 138-146 (2004)].

HDM2 protein, sequence (Q00987 whole entry): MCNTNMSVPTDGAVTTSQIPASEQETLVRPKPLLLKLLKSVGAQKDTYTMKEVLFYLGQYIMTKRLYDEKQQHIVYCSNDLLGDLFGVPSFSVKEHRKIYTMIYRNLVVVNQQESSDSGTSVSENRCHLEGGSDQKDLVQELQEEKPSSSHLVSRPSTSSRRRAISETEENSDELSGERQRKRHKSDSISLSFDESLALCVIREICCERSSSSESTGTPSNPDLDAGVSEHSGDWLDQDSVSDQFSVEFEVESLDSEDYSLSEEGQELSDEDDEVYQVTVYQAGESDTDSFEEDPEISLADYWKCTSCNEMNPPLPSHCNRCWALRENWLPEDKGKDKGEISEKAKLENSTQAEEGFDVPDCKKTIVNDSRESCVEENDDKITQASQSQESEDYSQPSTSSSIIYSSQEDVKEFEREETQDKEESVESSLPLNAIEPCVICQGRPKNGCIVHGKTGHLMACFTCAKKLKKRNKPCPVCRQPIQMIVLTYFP

Row | Compound | IC50 [nM]
1 | CCC[C@H]1N(C(=O)c2cnccc2C(F)(F)F)CCC[C@@]1(Oc1csc(C(F)(F)F)c1)C(=O)N1CCc2cccc(O)c2C1 [Compound A121, 2-{[(2R,3S)-2-propyl-1-{[4-(trifluoromethyl)pyridin-3-yl]carbonyl}-3-{[5-(trifluoromethyl)thiophen-3-yl]oxy}piperidin-3-yl]carbonyl}-1,2,3,4-tetrahydroisoquinolin-8-ol] | 101 to 20000
2 | CCC[C@H]1N(C(=O)c2ncccc2C(F)(F)F)CCC[C@@]1(Oc1csc(C(F)(F)F)c1)C(=O)N1Cc2ccc(Cl)cc2C[C@@H]1CCCF [Compound A141, (3S)-6-chloro-3-(3-fluoropropyl)-2-{[(2R,3S)-2-propyl-1-{[3-(trifluoromethyl)pyridin-2-yl]carbonyl}-3-{[5-(trifluoromethyl)thiophen-3-yl]oxy}piperidin-3-yl]carbonyl}-1,2,3,4-tetrahydroisoquinoline] | 101 to 20000
3 | CCC[C@H]1N(C(=O)c2ncccc2C(F)(F)F)CCC[C@@]1(Oc1csc(C(F)(F)F)c1)C(=O)N1Cc2ccc(F)cc2C[C@H]1CCC(C)O (stereo partly drawn) [Compound A167, 4-[(3R)-6-fluoro-2-{[(2R,3S)-2-propyl-1-{[3-(trifluoromethyl)pyridin-2-yl]carbonyl}-3-{[5-(trifluoromethyl)thiophen-3-yl]oxy}piperidin-3-yl]carbonyl}-1,2,3,4-tetrahydroisoquinolin-3-yl]butan-2-ol] | 1 to 100
4 | CCC[C@H]1N(C(=O)c2ncccc2C(F)(F)F)CCC[C@@]1(Oc1csc(C(F)(F)F)c1)C(=O)N1CCc2cc(Br)ccc2C1CCC(=O)O (stereo partly drawn) [Compound A57, 3-(6-bromo-2-{[(2R,3S)-2-propyl-1-{[3-(trifluoromethyl)pyridin-2-yl]carbonyl}-3-{[5-(trifluoromethyl)thiophen-3-yl]oxy}piperidin-3-yl]carbonyl}-1,2,3,4-tetrahydroisoquinolin-1-yl)propanoic acid] | 1 to 100
5 | CCC[C@H]1N(C(=O)c2ncccc2C(F)(F)F)CCC[C@@]1(Oc1csc(C(F)(F)F)c1)C(=O)N1Cc2ccc(Cl)cc2C[C@@H]1C(=O)N1CCC(O)CC1 [Compound A168, 1-{[(3R)-6-chloro-2-{[(2R,3S)-2-propyl-1-{[3-(trifluoromethyl)pyridin-2-yl]carbonyl}-3-{[5-(trifluoromethyl)thiophen-3-yl]oxy}piperidin-3-yl]carbonyl}-1,2,3,4-tetrahydroisoquinolin-3-yl]carbonyl}piperidin-4-ol] | 1 to 100
6 | CCC[C@H]1N(C(=O)c2ncccc2C(F)(F)F)CCC[C@@]1(Oc1csc(C(F)(F)F)c1)C(=O)N1CCc2cc(Br)ccc2C1CC(=O)O (stereo partly drawn) [Compound A72, (6-bromo-2-{[(2R,3S)-2-propyl-1-{[3-(trifluoromethyl)pyridin-2-yl]carbonyl}-3-{[5-(trifluoromethyl)thiophen-3-yl]oxy}piperidin-3-yl]carbonyl}-1,2,3,4-tetrahydroisoquinolin-1-yl)acetic acid] | 1 to 100
7 | COCCN(C)CC[C@H]1N(C(=O)c2ncccc2C(F)(F)F)CCC[C@@]1(Oc1csc(C(F)(F)F)c1)C(=O)N1CCc2cc(Cl)ccc2C1 [Compound A117, 2-[(2R,3S)-3-[(6-chloro-3,4-dihydroisoquinolin-2(1H)-yl)carbonyl]-1-{[3-(trifluoromethyl)pyridin-2-yl]carbonyl}-3-{[5-(trifluoromethyl)thiophen-3-yl]oxy}piperidin-2-yl]-N-(2-methoxyethyl)-N-methylethanamine] | 1 to 100
8 | CCC[C@H]1N(C(=O)c2ncccc2C(F)(F)F)CCC[C@@]1(Oc1csc(C(F)(F)F)c1)C(=O)N1Cc2ccc(F)cc2C[C@H]1CN(C)C(=O)C(F)F [Compound A159, 2,2-difluoro-N-{[(3S)-6-fluoro-2-{[(2R,3S)-2-propyl-1-{[3-(trifluoromethyl)pyridin-2-yl]carbonyl}-3-{[5-(trifluoromethyl)thiophen-3-yl]oxy}piperidin-3-yl]carbonyl}-1,2,3,4-tetrahydroisoquinolin-3-yl]methyl}-N-methylacetamide] | 101 to 20000
9 | NC(=O)C1c2ccc(Cl)cc2CCN1C(=O)[C@]1(Oc2csc(C(F)(F)F)c2)CCCN(C(=O)c2ncccc2C(F)(F)F)[C@@H]1CC(=O)O (stereo partly drawn) [Compound A95, [(2R,3S)-3-[(1-carbamoyl-6-chloro-3,4-dihydroisoquinolin-2(1H)-yl)carbonyl]-1-{[3-(trifluoromethyl)pyridin-2-yl]carbonyl}-3-{[5-(trifluoromethyl)thiophen-3-yl]oxy}piperidin-2-yl]acetic acid] | 1 to 100
10 | CCC[C@H]1N(C(=O)c2ncccc2C(F)(F)F)CCC[C@@]1(Oc1csc(C(F)(F)F)c1)C(=O)N1CCc2cc(Cl)ccc2C1CC(C(=O)O)C(C)C (stereo partly drawn) [Compound A177, 2-[(6-chloro-2-{[(2R,3S)-2-propyl-1-{[3-(trifluoromethyl)pyridin-2-yl]carbonyl}-3-{[5-(trifluoromethyl)thiophen-3-yl]oxy}piperidin-3-yl]carbonyl}-1,2,3,4-tetrahydroisoquinolin-1-yl)methyl]-3-methylbutanoic acid] | 101 to 20000
11 | CC(C)(C(=O)O)C1CCN(CC[C@H]2N(C(=O)c3ncccc3C(F)(F)F)CCC[C@@]2(Oc2csc(C(F)(F)F)c2)C(=O)N2CCc3cc(Cl)ccc3C2)CC1 [Compound A119, 2-(1-{2-[(2R,3S)-3-[(6-chloro-3,4-dihydroisoquinolin-2(1H)-yl)carbonyl]-1-{[3-(trifluoromethyl)pyridin-2-yl]carbonyl}-3-{[5-(trifluoromethyl)thiophen-3-yl]oxy}piperidin-2-yl]ethyl}piperidin-4-yl)-2-methylpropanoic acid] | 1 to 100
12 | CCCC1N(C(=O)c2ncccc2C(F)(F)F)CCCC1(Oc1ccc(OC(F)(F)F)cc1)C(=O)N1CCc2cc(F)ccc2C1 (centres unmarked) [Compound A110, 6-fluoro-2-[(2-propyl-3-[4-(trifluoromethoxy)phenoxy]-1-{[3-(trifluoromethyl)pyridin-2-yl]carbonyl}piperidin-3-yl)carbonyl]-1,2,3,4-tetrahydroisoquinoline] | 101 to 20000
13 | CCC[C@H]1N(C(=O)c2ncccc2C(F)(F)F)CCC[C@@]1(Oc1csc(C(F)(F)F)c1)C(=O)N1Cc2ccc(F)cc2C[C@H]1CN1CCC(O)CC1 [Compound A162, 1-{[(3S)-6-fluoro-2-{[(2R,3S)-2-propyl-1-{[3-(trifluoromethyl)pyridin-2-yl]carbonyl}-3-{[5-(trifluoromethyl)thiophen-3-yl]oxy}piperidin-3-yl]carbonyl}-1,2,3,4-tetrahydroisoquinolin-3-yl]methyl}piperidin-4-ol] | 101 to 20000

Next, values leading:

Row | IC50 [nM] | Compound
14 | 1 to 100 | CCC[C@H]1N(C(=O)c2ncccc2C(F)(F)F)CCC[C@@]1(Oc1csc(C(F)(F)F)c1)C(=O)N1CCc2cc(Cl)ccc2C1C(=O)O (stereo partly drawn) [Compound A100, 6-chloro-2-{[(2R,3S)-2-propyl-1-{[3-(trifluoromethyl)pyridin-2-yl]carbonyl}-3-{[5-(trifluoromethyl)thiophen-3-yl]oxy}piperidin-3-yl]carbonyl}-1,2,3,4-tetrahydroisoquinoline-1-carboxylic acid]
15 | 101 to 20000 | CCC[C@H]1N(C(=O)c2ncccc2C(F)(F)F)CCC[C@@]1(Oc1csc(C(F)(F)F)c1)C(=O)N1CCc2cc(N(C)C)ccc2C1 [Compound A83, N,N-dimethyl-2-{[(2R,3S)-2-propyl-1-{[3-(trifluoromethyl)pyridin-2-yl]carbonyl}-3-{[5-(trifluoromethyl)thiophen-3-yl]oxy}piperidin-3-yl]carbonyl}-1,2,3,4-tetrahydroisoquinolin-6-amine]
16 | 1 to 100 | C=CC[C@H]1N(C(=O)c2ncccc2C(F)(F)F)CCC[C@@]1(Oc1csc(C(F)(F)F)c1)C(=O)N1CCc2cc(Cl)ccc2C1C(=O)O (stereo partly drawn) [Compound A113, 6-chloro-2-{[(2R,3S)-2-prop-2-en-1-yl-1-{[3-(trifluoromethyl)pyridin-2-yl]carbonyl}-3-{[5-(trifluoromethyl)thiophen-3-yl]oxy}piperidin-3-yl]carbonyl}-1,2,3,4-tetrahydroisoquinoline-1-carboxylic acid]
17 | 1 to 100 | CCC[C@H]1N(C(=O)c2ncccc2C(F)(F)F)CCC[C@@]1(Oc1csc(C(F)(F)F)c1)C(=O)N1CCc2cc(Cl)ccc2[C@H]1CCC(=O)N1CCN(CCO)CC1 [Compound A91, 2-(4-{3-[(1R)-6-chloro-2-{[(2R,3S)-2-propyl-1-{[3-(trifluoromethyl)pyridin-2-yl]carbonyl}-3-{[5-(trifluoromethyl)thiophen-3-yl]oxy}piperidin-3-yl]carbonyl}-1,2,3,4-tetrahydroisoquinolin-1 - yl]propanoyl}piperazin-1-yl)ethanol]
18 | 1 to 100 | CCC[C@H]1N(C(=O)c2ncccc2C(F)(F)F)CCC[C@@]1(Oc1csc(C(F)(F)F)c1)C(=O)N1CCc2cc(Cl)ccc2[C@@H]1CCC(=O)N1CCC(C(=O)O)CC1 [Compound A99, 1-{3-[(1S)-6-chloro-2-{[(2R,3S)-2-propyl-1-{[3-(trifluoromethyl)pyridin-2-yl]carbonyl}-3-{[5-(trifluoromethyl)thiophen-3-yl]oxy}piperidin-3-yl]carbonyl}-1,2,3,4-tetrahydroisoquinolin-1-yl]propanoyl}piperidine-4-carboxylic acid]
19 | 1 to 100 | CCC[C@H]1N(C(=O)c2ncccc2C(F)(F)F)CCC[C@@]1(Oc1csc(C(F)(F)F)c1)C(=O)N1Cc2ccc(Cl)cc2C[C@@H]1C(=O)O [Compound A129, (3R)-6-chloro-2-{[(2R,3S)-2-propyl-1-{[3-(trifluoromethyl)pyridin-2-yl]carbonyl}-3-{[5-(trifluoromethyl)thiophen-3-yl]oxy}piperidin-3-yl]carbonyl}-1,2,3,4-tetrahydroisoquinoline-3-carboxylic acid]
20 | 101 to 20000 | CCC[C@H]1N(C(=O)c2ncccc2C(F)(F)F)CCC[C@@]1(Oc1csc(C(F)(F)F)c1)C(=O)N1CCc2cc(S(C)(=O)=O)ccc2C1 [Compound A90, 6-(methylsulfonyl)-2-{[(2R,3S)-2-propyl-1-{[3-(trifluoromethyl)pyridin-2-yl]carbonyl}-3-{[5-(trifluoromethyl)thiophen-3-yl]oxy}piperidin-3-yl]carbonyl}-1,2,3,4-tetrahydroisoquinoline]
